A value given as a limit tells only on which side of the number the result lay.

The values that follow come from ChEMBL document CHEMBL5137008, “Recent advances of antitumor shikonin/alkannin derivatives: A comprehensive overview focusing on structural classification, synthetic approaches, and mechanisms of action” (Eur J Med Chem, 2022).

Series [1] deals with MOLT-4. The series can be described thus: Anticancer activity against human MOLT-4 cells assessed as inhibition of cell proliferation incubated for 72 hrs by SRB assay. In kind it is functional, cell-based. The conditions noted are these: MOLT-4, 72 h.
Series [2] has as its system A549. The series can be described thus: Anticancer activity against human A549 cells assessed as inhibition of cell proliferation incubated for 72 hrs by SRB assay. The conditions noted are these: A549, 72 h. In kind it is functional, cell-based.
The test system of series [3] is SJRH30. The series can be described thus: Anticancer activity against human Rh30 cells assessed as inhibition of cell proliferation incubated for 72 hrs by SRB assay. The class given is functional, cell-based. The following applies: SJRH30, 72 h.
The nature of series [4]: Antitubulin activity against bovine brain tubulin polymerization preincubated with compound followed by GTP addition by turbidimetry-based spectrophotometric method. More on the design: species or system Bos taurus.
Series [5] relates to MG-63. The series can be described thus: Antiproliferative activity against human MG-63 cells incubated for 24 hrs by MTT assay. In kind it is functional, cell-based. The following applies: MG-63, 24 h.
Series [6] deals with MCF7. The series can be described thus: Antiproliferative activity against human MCF7 cells incubated for 24 hrs by MTT assay. In kind it is functional, cell-based. The following applies: MCF7, 24 h.
The test system of series [7] is B16-F10. The series can be described thus: Antiproliferative activity against mouse B16-F10 cells incubated for 24 hrs by MTT assay. The class given is functional, cell-based. The following applies: B16-F10, 24 h.
Series [8] deals with HepG2. The series can be described thus: Antiproliferative activity against human HepG2 cells incubated for 24 hrs by MTT assay. In kind it is functional, cell-based. The following applies: HepG2, 24 h.
For series [9], the system named is MDA-MB-231. The series can be described thus: Antiproliferative activity against human MDA-MB-231 cells incubated for 24 hrs by MTT assay. In kind it is functional, cell-based. The following applies: MDA-MB-231, 24 h.
Series [10] is described as follows: Cytotoxicity against human L02 incubated for 24 hrs by MTT assay. In kind it is toxicity, cell-based. The conditions noted are these: L02 cells.
The nature of series [11]: Cytotoxicity against African green monkey Vero cells incubated for 24 hrs by MTT assay. The class given is toxicity, cell-based, Chlorocebus sabaeus.
Series [12] can be described thus: Cytotoxicity against human MCF-10A incubated for 24 hrs by MTT assay. In kind it is toxicity, cell-based. The conditions noted are these: MCF-10A cells.
Series [13] can be described thus: Cytotoxicity against human skin fibroblast cells assessed as reduction in cell viability incubated for 72 hrs by MTT assay. In kind it is toxicity, cell-based.
Series [14] concerns K562. The series can be described thus: Anticancer activity against human K562 cells assessed as reduction in cell viability for 72 hrs by MTT assay. In kind it is functional, cell-based. The conditions noted are these: K562, 72 h.
The subject of series [15] is MCF7. The series can be described thus: Anticancer activity against human MCF7 cells assessed as reduction in cell viability for 72 hrs by MTT assay. In kind it is functional, cell-based. The conditions noted are these: MCF7, 72 h.
For series [16], the system named is HCT-15. The series can be described thus: Anticancer activity against human HCT-15 cells assessed as reduction in cell viability for 72 hrs by MTT assay. The class given is functional, cell-based. The following applies: HCT-15, 72 h.
A short description of series [17]: Cytotoxicity against human skin fibroblast cells incubated for 24 hrs by MTT assay. The class given is toxicity, cell-based.
Series [18] has as its system SBcl2. The series can be described thus: Antitumor activity against human SBcl2 cells assessed as reduction in cell viability incubated for 72 hrs by XTT assay. In kind it is functional, cell-based. The following applies: SBcl2, 72 h.
A short description of series [19]: Antitumor activity against human WM9 cells assessed as reduction in cell viability incubated for 72 hrs by XTT assay. The conditions noted are these: WM9, 72 h. In kind it is functional, cell-based.
Series [20] deals with WM164. The series can be described thus: Antitumor activity against human WM164 cells assessed as reduction in cell viability incubated for 72 hrs by XTT assay. In kind it is functional, cell-based. The conditions noted are these: WM164, 72 h.
The test system of series [21] is MUGMel2. The series can be described thus: Antitumor activity against human MUG-Mel2 cells assessed as reduction in cell viability incubated for 72 hrs by XTT assay. The following applies: MUGMel2, 72 h. In kind it is functional, cell-based.
Series [22] concerns U-87 MG. The series can be described thus: Anticancer activity against human U87 cells assessed as inhibition of cell proliferation incubated for 48 hrs by MTT assay. In kind it is functional, cell-based, U-87MG ATCC.
The subject of series [23] is SMMC-7721. The series can be described thus: Anticancer activity against human SMMC-7721 cells assessed as inhibition of cell proliferation incubated for 48 hrs by MTT assay. The class given is functional, cell-based. The following applies: SMMC-7721, 48 h.
The test system of series [24] is SGC-7901. The series can be described thus: Anticancer activity against human SGC-7901 cells assessed as inhibition of cell proliferation incubated for 48 hrs by MTT assay. The class given is functional, cell-based. The conditions noted are these: SGC-7901, 48 h.
Series [25] has as its system MGC-803. The series can be described thus: Anticancer activity against human MGC-803 cells assessed as inhibition of cell proliferation incubated for 48 hrs by MTT assay. In kind it is functional, cell-based. The conditions noted are these: MGC-803, 48 h.
Series [26] deals with L1210. The series can be described thus: Anticancer activity against mouse L1210 cells assessed as reduction in cell viability for 72 hrs by MTT assay. The following applies: read-out: ED50 (the source's name). In kind it is functional.
The test system of series [27] is SNU1. The series can be described thus: Anticancer activity against human SNU1 cells assessed as reduction in cell viability for 72 hrs by MTT assay. The class given is functional, cell-based. The following applies: SNU1, 72 h.
The test system of series [28] is L1210. The series can be described thus: Anticancer activity against mouse L1210 cells. The class given is functional. The conditions noted are these: read-out: ED50 (the source's name).
In series [29] the test system is A549. The series can be described thus: Anticancer activity against human A549 cells. The class given is functional. The conditions noted are these: read-out: ED50 (the source's name).
For series [30], the system named is Sarcoma-180. The series can be described thus: Antitumor activity against mouse Sarcoma-180 cells xenografted in ip dosed ICR mouse assessed as tumor growth inhibition rate administered daily for 7 days relative to control. The class given is functional. The following applies: time 7 day.
The test system of series [31] is HeLa. The series can be described thus: Antiproliferative activity against human HeLa cells assessed as inhibition of cell growth incubated for 24 hrs by MTT assay. In kind it is functional, cell-based.
Series [32] relates to MDA-MB-231. The series can be described thus: Antiproliferative activity against human MDA-MB-231 cells assessed as inhibition of cell growth incubated for 24 hrs by MTT assay. The class given is functional, cell-based. The conditions noted are these: MDA-MB-231, 24 h.
Series [33] concerns A549. The series can be described thus: Antiproliferative activity against human A549 cells assessed as inhibition of cell growth incubated for 24 hrs by MTT assay. The class given is functional, cell-based. The conditions noted are these: A549, 24 h.
The test system of series [34] is U-87 MG. The series can be described thus: Anticancer activity against human U87 cells incubated for 48 hrs by MTT assay. The class given is functional, cell-based, U-87MG ATCC.
Series [35] deals with SMMC-7721. The series can be described thus: Anticancer activity against human SMMC-7721 cells incubated for 48 hrs by MTT assay. In kind it is functional, cell-based. The conditions noted are these: SMMC-7721, 48 h.
Series [36] concerns SGC-7901. The series can be described thus: Anticancer activity against human SGC-7901 cells incubated for 48 hrs by MTT assay. In kind it is functional, cell-based. The following applies: SGC-7901, 48 h.
For series [37], the system named is MGC-803. The series can be described thus: Anticancer activity against human MGC-803 cells incubated for 48 hrs by MTT assay. The conditions noted are these: MGC-803, 48 h. In kind it is functional, cell-based.
The nature of series [38]: Cytotoxicity against human L02 cells incubated for 48 hrs by MTT assay. The class given is toxicity, cell-based.
For series [39], the system named is HCT-15. The series can be described thus: Anticancer activity against human HCT-15 cells incubated for 72 hrs by MTT assay. In kind it is functional, cell-based. The conditions noted are these: HCT-15, 72 h.
Series [40] has as its system MCF7. The series can be described thus: Anticancer activity against human MCF7 cells incubated for 72 hrs by MTT assay. In kind it is functional, cell-based. The following applies: MCF7, 72 h.
Series [41] deals with MGC-803. The series can be described thus: Anticancer activity against human MGC-803 cells incubated for 72 hrs by MTT assay. The class given is functional, cell-based. The following applies: MGC-803, 72 h.
Series [42] deals with Fibroblast. The series can be described thus: Cytotoxicity against human skin fibroblast cells incubated for 72 hrs by MTT assay. In kind it is functional, cell-based.

As for `CC(C)=CC[C@@H](OC(=O)c1ccco1)C1=CC(=O)c2c(O)ccc(O)c2C1=O`, the IC50 in series [1] came out at 0.3 µM; in series [2] it was 0.46 µM; in series [3], 0.47 µM.
Consider `CC(=O)O[C@@H]1[C@@H](OC(C)=O)[C@H](Sc2cc(O)c3c(c2O)C(=O)C=C([C@@H](CC=C(C)C)SC2OC[C@@H](OC(C)=O)[C@H](OC(C)=O)[C@H]2OC(C)=O)C3=O)OC[C@H]1OC(C)=O` (some centres not stated), for which the IC50 in series [4] was 4.67 µM; in series [5], 1.22 µM; in [6], 2.37 µM; in series [7], 4.53 µM; in series [8], 1.22 µM; in series [9] it was 10.6 µM. In addition, the IC50 at 24 h in series [10] was determined as 132 µM; in series [11] it was 82.5 µM; in series [12] it was 78.1 µM.
For the compound `CC(C)=CC[C@H](O)C1=CC(=O)c2c(O)ccc(O)c2C1=O` [ALKANNIN], the IC50 at 72 h in series [13] is 1.5 µM. For the same compound, the IC50 in [14] was found to be 1.5 µM; in series [15], 2.62 µM; in series [16], 1.11 µM. The compound also registered an IC50 at 24 h in series [17] of 1.8 µM.
As for `CC(C)=CC[C@@H](OC(=O)C=C(C)C)C1=CC(=O)c2c(O)ccc(O)c2C1=O` [DIMETHYLACRYLSHIKONIN], the IC50 in series [18] turned out to be 1.1 µM; in series [19] it was 2.7 µM; in series [20] it was 8.3 µM; in [21], 7.2 µM.
In the case of `COc1cccc2c1C(=O)c1c(O)c3c(c(O)c1C2=O)C[C@@](O)(C(=O)CO)C[C@@H]3O[C@H]1C[C@H](N)[C@H](O)[C@H](C)O1.Cl` [DOXORUBICIN HYDROCHLORIDE], the IC50 was determined as 0.57 µM in [22]; 0.46 µM in series [23]; 0.72 µM in series [24]; 0.48 µM in [25]; 2.01 µM in [27]. For the same compound, the EC50 in series [26] is 0.07 µg/mL; in series [28], 0.016 µg/mL; in [29], 1.01 µg/mL. Besides, the T/C in [30] turned out to be 315%.
Regarding `COc1cccc2c1C(=O)c1c(O)c3c(c(O)c1C2=O)C[C@@](O)(C(=O)CO)C[C@@H]3O[C@H]1C[C@H](N)[C@H](O)[C@H](C)O1` [DOXORUBICIN], the IC50 in series [31] amounted to 4.61 µM; in series [32], 4.21 µM; in series [33], 5.13 µM; in series [34], 0.57 µM; in series [35] it was 0.46 µM; in series [36] it was 0.72 µM. The same compound came in with an IC50 in [37] of 0.48 µM. The compound further yielded an IC50 at 48 h in series [38] of over 100 µM.
Turning to `O=c1[nH]cc(F)c(=O)[nH]1` [FLUOROURACIL], the IC50 in series [39] was 8.24 µM; in series [40], 29.5 µM; in series [41], over 50 µM; in [42], over 50 µM.
